Assay results reported in publication PMC9898036, “VIP152 is a selective CDK9 inhibitor with pre-clinical in vitro and in vivo efficacy in chronic lymphocytic leukemia” (Leukemia, 2022).
Where two headings read alike, the source gives them in different places.

Legend:
Assay in all cases: DiscoverX KINOMEscan kinase profiling (468 assays)
Format in all cases: binding
human kinome [1] = target: human kinome (Homo sapiens, UniProt O75582); settings: compound concentration 1000 nM, read-out: Percent Control
Procedure, shortened: (§1)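 VIP152 was run in DMSO, alongside a DMSO control. Readout was qPCR of DNA-tagged kinase still bound to bead-immobilized biotinylated kinase ligands after compound competition.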

human kinome [2] = target: human kinome (Homo sapiens, UniProt P00533, DEL752-759); settings: EGFR(S752-I759del); 100 nM; read-out: Percent Control
Procedure, shortened: as §1

human kinome [3] = target: human kinome (Homo sapiens, UniProt P07949, M918T); settings: kinase RET(M918T) (Entrez RET); compound concentration 1000 nM; read-out: Percent Control
Procedure, shortened: as §1

human kinome [4] = target: human kinome (Homo sapiens, UniProt P08922); settings: kinase ROS1 (Entrez ROS1); compound concentration 1000 nM; read-out: Percent Control
Procedure, shortened: as §1

human kinome [5] = target: human kinome (Homo sapiens, UniProt P22607); settings: FGFR3; 100 nM; read-out: Percent Control
Procedure, shortened: as §1

human kinome [6] = target: human kinome (Homo sapiens, UniProt P27448); settings: MARK3; 100 nM; read-out: Percent Control
Procedure, shortened: as §1

human kinome [7] = target: human kinome (Homo sapiens, UniProt P29322); settings: EPHA8; 100 nM; read-out: Percent Control
Procedure, shortened: as §1

human kinome [8] = target: human kinome (Homo sapiens, UniProt P42336); settings: read-out: Percent Control
Procedure, shortened: as §1

human kinome [9] = target: human kinome (Homo sapiens, UniProt P42336, E545A); settings: read-out: Percent Control
Procedure, shortened: as §1

human kinome [10] = target: human kinome (Homo sapiens, UniProt P48729); settings: CSNK1A1; 100 nM; read-out: Percent Control
Procedure, shortened: as §1

human kinome [11] = target: human kinome (Homo sapiens, UniProt P49336); settings: CDK8; 100 nM; read-out: Percent Control
Procedure, shortened: as §1

human kinome [12] = target: human kinome (Homo sapiens, UniProt P52333); settings: JAK3(JH1domain-catalytic); 100 nM; read-out: Percent Control
Procedure, shortened: as §1

human kinome [13] = target: human kinome (Homo sapiens, UniProt P53350); settings: read-out: Percent Control
Procedure, shortened: as §1

human kinome [14] = target: human kinome (Homo sapiens, UniProt P54756); settings: EPHA5; 100 nM; read-out: Percent Control
Procedure, shortened: as §1

human kinome [15] = target: human kinome (Homo sapiens, UniProt P57078); settings: kinase RIPK4 (Entrez RIPK4); compound concentration 1000 nM; read-out: Percent Control
Procedure, shortened: as §1

human kinome [16] = target: human kinome (Homo sapiens, UniProt Q00526); settings: CDK3; 100 nM; read-out: Percent Control
Procedure, shortened: as §1

human kinome [17] = target: human kinome (Homo sapiens, UniProt Q13177); settings: read-out: Percent Control
Procedure, shortened: as §1

human kinome [18] = target: human kinome (Homo sapiens, UniProt Q13188); settings: MST2 (Entrez STK3); 100 nM; read-out: Percent Control
Procedure, shortened: as §1

human kinome [19] = target: human kinome (Homo sapiens, UniProt Q13464); settings: kinase ROCK1 (Entrez ROCK1); compound concentration 1000 nM; read-out: Percent Control
Procedure, shortened: as §1

human kinome [20] = target: human kinome (Homo sapiens, UniProt Q52WX2); settings: kinase SBK1 (Entrez SBK1); compound concentration 1000 nM; read-out: Percent Control
Procedure, shortened: as §1

human kinome [21] = target: human kinome (Homo sapiens, UniProt Q6P3R8); settings: read-out: Percent Control
Procedure, shortened: as §1

human kinome [22] = target: human kinome (Homo sapiens, UniProt Q8IY84); settings: read-out: Percent Control
Procedure, shortened: as §1

human kinome [23] = target: human kinome (Homo sapiens, UniProt Q9BYP7); settings: kinase WNK3 (Entrez WNK3); compound concentration 1000 nM; read-out: Percent Control
Procedure, shortened: as §1

human kinome [24] = target: human kinome (Homo sapiens, UniProt Q9H2K8); settings: kinase TAOK3 (Entrez TAOK3); compound concentration 1000 nM; read-out: Percent Control
Procedure, shortened: as §1

human kinome [25] = target: human kinome (Homo sapiens, UniProt Q9H4A3); settings: kinase WNK1 (Entrez WNK1); compound concentration 1000 nM; read-out: Percent Control
Procedure, shortened: as §1

human kinome [26] = target: human kinome (Homo sapiens, UniProt Q9UM73, C1156Y); settings: ALK(C1156Y); 100 nM; read-out: Percent Control
Procedure, shortened: as §1

human kinome [27] = target: human kinome (Homo sapiens, UniProt Q9Y2U5); settings: MAP3K2; 100 nM; read-out: Percent Control
Procedure, shortened: as §1

human kinome [28] = target: human kinome (Homo sapiens, UniProt Q9Y6E0); settings: MST3 (Entrez STK24); 100 nM; read-out: Percent Control
Procedure, shortened: as §1

human kinome [29] = target: human kinome (Homo sapiens, UniProt Q9Y6R4); settings: MAP3K4; 100 nM; read-out: Percent Control
Procedure, shortened: as §1

human kinome (Homo sapiens, UniProt Q6P3R8), sequence (Q6P3R8 whole entry): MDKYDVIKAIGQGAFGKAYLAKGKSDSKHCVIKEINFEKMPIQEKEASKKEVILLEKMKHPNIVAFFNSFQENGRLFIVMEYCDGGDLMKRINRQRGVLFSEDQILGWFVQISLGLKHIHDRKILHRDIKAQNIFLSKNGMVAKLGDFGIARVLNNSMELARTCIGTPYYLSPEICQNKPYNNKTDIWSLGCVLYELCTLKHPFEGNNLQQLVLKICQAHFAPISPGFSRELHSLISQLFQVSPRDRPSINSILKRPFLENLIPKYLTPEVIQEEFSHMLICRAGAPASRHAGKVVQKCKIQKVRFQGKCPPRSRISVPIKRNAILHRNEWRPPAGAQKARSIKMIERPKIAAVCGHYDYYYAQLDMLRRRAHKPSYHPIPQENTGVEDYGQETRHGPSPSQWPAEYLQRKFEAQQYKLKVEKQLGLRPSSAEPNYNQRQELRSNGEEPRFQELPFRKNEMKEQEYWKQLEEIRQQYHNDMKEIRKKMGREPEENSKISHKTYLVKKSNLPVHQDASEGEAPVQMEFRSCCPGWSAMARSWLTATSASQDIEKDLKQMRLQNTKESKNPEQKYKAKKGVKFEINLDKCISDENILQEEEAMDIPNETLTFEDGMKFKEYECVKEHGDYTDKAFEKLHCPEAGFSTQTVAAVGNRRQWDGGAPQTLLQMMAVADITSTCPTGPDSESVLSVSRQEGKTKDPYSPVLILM
human kinome (Homo sapiens, UniProt Q13177), sequence (Q13177 whole entry): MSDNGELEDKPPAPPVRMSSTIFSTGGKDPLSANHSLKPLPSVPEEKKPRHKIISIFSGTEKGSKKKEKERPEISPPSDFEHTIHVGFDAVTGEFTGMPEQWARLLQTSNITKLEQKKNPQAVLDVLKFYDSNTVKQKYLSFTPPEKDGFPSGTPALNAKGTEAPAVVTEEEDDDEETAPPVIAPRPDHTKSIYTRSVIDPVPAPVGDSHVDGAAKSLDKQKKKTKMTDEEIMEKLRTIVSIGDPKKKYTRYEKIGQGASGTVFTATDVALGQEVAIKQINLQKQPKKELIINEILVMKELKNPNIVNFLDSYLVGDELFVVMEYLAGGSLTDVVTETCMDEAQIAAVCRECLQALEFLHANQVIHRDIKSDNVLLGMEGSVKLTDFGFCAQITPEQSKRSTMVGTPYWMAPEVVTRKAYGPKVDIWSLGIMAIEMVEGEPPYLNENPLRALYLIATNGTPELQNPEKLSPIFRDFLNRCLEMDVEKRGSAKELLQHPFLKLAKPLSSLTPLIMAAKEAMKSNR
human kinome (Homo sapiens, UniProt O75582), sequence (O75582 whole entry): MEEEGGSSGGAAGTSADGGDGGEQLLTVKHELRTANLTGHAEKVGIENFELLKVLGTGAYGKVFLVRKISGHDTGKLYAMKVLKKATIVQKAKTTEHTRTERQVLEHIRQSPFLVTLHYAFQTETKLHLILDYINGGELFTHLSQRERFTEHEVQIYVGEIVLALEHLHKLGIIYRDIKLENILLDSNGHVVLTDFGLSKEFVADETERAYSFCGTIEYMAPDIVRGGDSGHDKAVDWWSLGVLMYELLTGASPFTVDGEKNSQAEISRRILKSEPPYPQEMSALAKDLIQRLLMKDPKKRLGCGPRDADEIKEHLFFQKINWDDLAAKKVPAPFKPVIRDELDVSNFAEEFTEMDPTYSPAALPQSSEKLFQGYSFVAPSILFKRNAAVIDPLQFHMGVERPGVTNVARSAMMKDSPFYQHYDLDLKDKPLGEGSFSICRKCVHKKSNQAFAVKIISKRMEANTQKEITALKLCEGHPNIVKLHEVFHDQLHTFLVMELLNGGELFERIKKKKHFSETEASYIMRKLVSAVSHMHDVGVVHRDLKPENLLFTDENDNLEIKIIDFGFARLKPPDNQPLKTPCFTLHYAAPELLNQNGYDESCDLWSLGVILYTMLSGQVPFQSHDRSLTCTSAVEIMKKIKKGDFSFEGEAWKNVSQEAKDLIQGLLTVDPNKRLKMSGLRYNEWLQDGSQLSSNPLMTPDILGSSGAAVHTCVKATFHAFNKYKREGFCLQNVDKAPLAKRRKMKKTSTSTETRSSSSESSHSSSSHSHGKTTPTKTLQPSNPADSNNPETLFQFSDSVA
human kinome (Homo sapiens, UniProt P42336, E545A), sequence (P42336 whole entry E545A): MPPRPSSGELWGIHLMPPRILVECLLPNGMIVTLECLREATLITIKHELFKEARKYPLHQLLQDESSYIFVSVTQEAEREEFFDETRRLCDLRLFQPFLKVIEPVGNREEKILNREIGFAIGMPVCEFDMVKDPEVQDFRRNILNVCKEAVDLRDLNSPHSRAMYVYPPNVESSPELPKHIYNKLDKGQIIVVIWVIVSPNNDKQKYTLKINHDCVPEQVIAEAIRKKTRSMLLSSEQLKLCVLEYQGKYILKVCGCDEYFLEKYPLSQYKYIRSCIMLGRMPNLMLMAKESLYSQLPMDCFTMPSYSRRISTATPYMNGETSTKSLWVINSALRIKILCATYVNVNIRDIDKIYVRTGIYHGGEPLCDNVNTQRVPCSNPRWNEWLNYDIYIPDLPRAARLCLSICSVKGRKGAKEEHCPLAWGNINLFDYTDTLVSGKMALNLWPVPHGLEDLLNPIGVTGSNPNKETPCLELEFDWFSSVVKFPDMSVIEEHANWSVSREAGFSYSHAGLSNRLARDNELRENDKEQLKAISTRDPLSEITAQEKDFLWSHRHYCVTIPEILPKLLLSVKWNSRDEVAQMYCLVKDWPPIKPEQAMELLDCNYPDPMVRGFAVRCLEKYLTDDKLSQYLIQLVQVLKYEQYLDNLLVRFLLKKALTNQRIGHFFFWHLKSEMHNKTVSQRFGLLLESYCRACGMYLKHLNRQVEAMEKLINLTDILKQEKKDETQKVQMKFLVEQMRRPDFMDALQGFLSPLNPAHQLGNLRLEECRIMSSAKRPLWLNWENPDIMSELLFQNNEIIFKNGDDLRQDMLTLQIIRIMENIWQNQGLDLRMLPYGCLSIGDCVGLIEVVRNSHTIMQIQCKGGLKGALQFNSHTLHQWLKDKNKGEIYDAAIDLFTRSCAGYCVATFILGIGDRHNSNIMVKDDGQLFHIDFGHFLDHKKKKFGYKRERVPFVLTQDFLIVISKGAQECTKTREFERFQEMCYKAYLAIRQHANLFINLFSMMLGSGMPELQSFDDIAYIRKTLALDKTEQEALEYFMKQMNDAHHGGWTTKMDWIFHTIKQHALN
human kinome (Homo sapiens, UniProt P42336), sequence (P42336 whole entry): as the sequence (P42336 whole entry E545A) above, with A545E counted along it
human kinome (Homo sapiens, UniProt Q8IY84), sequence (Q8IY84 whole entry): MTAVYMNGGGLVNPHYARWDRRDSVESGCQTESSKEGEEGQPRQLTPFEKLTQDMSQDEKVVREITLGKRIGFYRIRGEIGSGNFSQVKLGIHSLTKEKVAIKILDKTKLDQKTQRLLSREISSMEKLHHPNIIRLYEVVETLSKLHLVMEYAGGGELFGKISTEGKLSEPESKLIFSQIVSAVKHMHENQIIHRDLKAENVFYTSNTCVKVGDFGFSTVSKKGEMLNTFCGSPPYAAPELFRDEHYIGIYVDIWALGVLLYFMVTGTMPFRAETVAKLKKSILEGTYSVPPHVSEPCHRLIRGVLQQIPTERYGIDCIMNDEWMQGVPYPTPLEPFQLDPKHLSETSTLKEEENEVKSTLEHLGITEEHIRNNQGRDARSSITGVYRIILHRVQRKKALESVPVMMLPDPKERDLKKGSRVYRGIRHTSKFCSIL
human kinome (Homo sapiens, UniProt P53350), sequence (P53350 whole entry): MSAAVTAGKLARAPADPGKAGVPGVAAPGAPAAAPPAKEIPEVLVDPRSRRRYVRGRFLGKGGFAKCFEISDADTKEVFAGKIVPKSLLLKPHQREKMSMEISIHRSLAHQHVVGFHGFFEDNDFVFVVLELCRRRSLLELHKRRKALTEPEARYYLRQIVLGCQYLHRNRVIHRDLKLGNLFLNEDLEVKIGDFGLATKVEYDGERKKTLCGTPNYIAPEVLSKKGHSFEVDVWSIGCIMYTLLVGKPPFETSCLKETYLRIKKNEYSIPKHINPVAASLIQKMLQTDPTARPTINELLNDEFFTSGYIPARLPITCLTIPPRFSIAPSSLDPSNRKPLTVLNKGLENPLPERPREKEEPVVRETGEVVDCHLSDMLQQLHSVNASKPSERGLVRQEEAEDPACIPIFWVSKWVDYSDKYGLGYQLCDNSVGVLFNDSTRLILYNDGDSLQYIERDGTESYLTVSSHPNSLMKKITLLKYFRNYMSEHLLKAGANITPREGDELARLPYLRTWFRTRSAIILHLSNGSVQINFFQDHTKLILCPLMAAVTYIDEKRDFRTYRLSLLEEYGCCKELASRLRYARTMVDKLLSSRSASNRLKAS
human kinome (Homo sapiens, UniProt Q13188), sequence (Q13188 whole entry): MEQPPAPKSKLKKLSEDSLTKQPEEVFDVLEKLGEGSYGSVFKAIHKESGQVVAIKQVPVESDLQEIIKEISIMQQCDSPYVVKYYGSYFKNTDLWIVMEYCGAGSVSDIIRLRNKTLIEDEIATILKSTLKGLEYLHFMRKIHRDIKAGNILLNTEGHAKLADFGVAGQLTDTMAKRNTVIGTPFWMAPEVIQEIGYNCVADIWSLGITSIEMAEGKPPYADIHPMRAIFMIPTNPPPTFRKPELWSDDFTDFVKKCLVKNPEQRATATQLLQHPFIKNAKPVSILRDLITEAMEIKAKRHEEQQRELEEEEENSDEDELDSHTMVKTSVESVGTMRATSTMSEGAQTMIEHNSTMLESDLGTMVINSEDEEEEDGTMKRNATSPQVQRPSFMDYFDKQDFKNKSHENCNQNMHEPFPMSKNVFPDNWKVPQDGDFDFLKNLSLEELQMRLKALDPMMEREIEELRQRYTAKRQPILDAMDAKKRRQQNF
human kinome (Homo sapiens, UniProt Q00526), sequence (Q00526 whole entry): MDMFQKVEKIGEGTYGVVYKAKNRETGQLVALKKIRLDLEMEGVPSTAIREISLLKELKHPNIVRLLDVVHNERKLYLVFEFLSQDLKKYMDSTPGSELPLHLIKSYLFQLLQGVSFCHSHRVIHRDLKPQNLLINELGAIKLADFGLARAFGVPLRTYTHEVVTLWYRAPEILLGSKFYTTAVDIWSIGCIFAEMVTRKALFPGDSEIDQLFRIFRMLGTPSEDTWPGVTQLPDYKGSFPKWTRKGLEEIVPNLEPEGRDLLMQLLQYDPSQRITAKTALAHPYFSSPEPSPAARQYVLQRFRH

`COc1cc(F)ccc1-c1cc(Nc2cc(CS(C)(=N)=O)ccn2)ncc1F` (stereo not drawn) [VIP152] was tested, and the remaining binding at 1 µM (human kinome [1]; kinase RPS6KA5(Kin.Dom.1-N-terminal) (Entrez RPS6KA5)) was 100%, the remaining binding at 1 µM (human kinome [1]; kinase RPS6KA5(Kin.Dom.2-C-terminal) (Entrez RPS6KA5)) was 100% and the remaining binding at 0.1 µM (human kinome [2]) was 100%. It also gave a remaining binding at 1 µM (human kinome [3]) of 73%, a remaining binding at 1 µM (human kinome [4]) of 80% and a remaining binding at 0.1 µM (human kinome [5]) of 100%. The remaining binding at 0.1 µM (human kinome [6]) was 99%, the remaining binding at 0.1 µM (human kinome [7]) was 100% and the remaining binding at 0.1 µM (human kinome [8]; PIK3CA, 100 nM) was 100%. It also gave a remaining binding at 1 µM (human kinome [8]; kinase PIK3CA (Entrez PIK3CA), compound concentration 1000 nM) of 95%, a remaining binding at 0.1 µM (human kinome [9]; PIK3CA(E545A), 100 nM) of 71% and a remaining binding at 1 µM (human kinome [9]; kinase PIK3CA(E545A) (Entrez PIK3CA), compound concentration 1000 nM) of 98%. The remaining binding at 0.1 µM (human kinome [10]) was 79%, the remaining binding at 0.1 µM (human kinome [11]) was 100% and the remaining binding at 0.1 µM (human kinome [12]) was 100%. It also gave a remaining binding at 0.1 µM (human kinome [13]; PLK1, 100 nM) of 100%, a remaining binding at 1 µM (human kinome [13]; kinase PLK1 (Entrez PLK1), compound concentration 1000 nM) of 89% and a remaining binding at 0.1 µM (human kinome [14]) of 100%. For the same molecule, the remaining binding at 1 µM (human kinome [15]) was 49%, the remaining binding at 0.1 µM (human kinome [16]) was 100% and the remaining binding at 0.1 µM (human kinome [17]; PAK2, 100 nM) was 81%. It also gave a remaining binding at 1 µM (human kinome [17]; kinase PAK2 (Entrez PAK2), compound concentration 1000 nM) of 100%, a remaining binding at 0.1 µM (human kinome [18]) of 99% and a remaining binding at 1 µM (human kinome [19]) of 57%. For the same molecule, the remaining binding at 1 µM (human kinome [20]) was 100%, the remaining binding at 0.1 µM (human kinome [21]; NEK5, 100 nM) was 100% and the remaining binding at 1 µM (human kinome [21]; kinase NEK5 (Entrez NEK5), compound concentration 1000 nM) was 92%. It also gave a remaining binding at 0.1 µM (human kinome [22]; NIM1 (Entrez MGC42105), 100 nM) of 100%, a remaining binding at 1 µM (human kinome [22]; kinase NIM1 (Entrez MGC42105), compound concentration 1000 nM) of 86% and a remaining binding at 1 µM (human kinome [23]) of 92%. It also gave a remaining binding at 1 µM (human kinome [24]) of 57%, a remaining binding at 1 µM (human kinome [25]) of 90% and a remaining binding at 0.1 µM (human kinome [26]) of 100%. The remaining binding at 0.1 µM (human kinome [27]) was 100%, the remaining binding at 0.1 µM (human kinome [28]) was 100% and the remaining binding at 0.1 µM (human kinome [29]) was 100%.
